Assay results as given in publication PMC8365602 (Journal of Medicinal Chemistry, 2021).

Assays:
monocytes = assay: Monocyte membrane integrity (LDH release); format: cell-based, human; conditions: higher concentrations (>1 μM)
Method: To measure mitochondrial dehydrogenase activity, 3-(4,5-dimethylthiazol-2-yl)-2,5-diphenyltetrazolium bromide (MTT) (20 μL, 5 mg/mL, Sigma-Aldrich) was added to PBMC. After 4 h in the darkness, the formed formazan product was solubilized (10% SDS in 20 mM HCl) and the absorbance was read at 570 nm using a Multiskan Spectrum microplate reader (Thermo Fisher Scientific).[81]
LDH release was measured in monocytes using a CytoTox 96 nonradioactive cytotoxicity assay (Promega, Madison, WI) according to the manufacturer’s instruction using Triton X-100 (0.8%) as the maximum LDH release control.

[1] = Hepatic metabolism in human liver-on-chip; format: in vitro ADME; conditions: 1 μM, 48 h
Method: LCMs, 27a, and 27a metabolites were extracted from PMNL, medium of the liver-on-chip, murine plasma, peritoneal exudate, or homogenized murine tissue as described.[6] In brief, PBS pH 7.4, methanol, chloroform, and saline (final ratio: 14:34:35:17) were successively added together with 13d (9 pmol) as the internal standard. The organic layer was evaporated, and the extracted LCMs were dissolved in methanol.
LCMs, 27a, and 27a metabolites were separated at a flow rate of 0.8 mL/min and a column temperature of 45 °C, with acetonitrile/H2O (10:90) as mobile phase A and acetonitrile as mobile phase B, both acidified with 0.07% formic acid. The linear gradient from A/B = 50:50 to 0:100 within 4.5 min was followed by isocratic elution with A/B = 0:100 for 1 min. MS parameters were adjusted according to Pein et al.[6] and as detailed in Table S3. Signal intensities were normalized to the internal standard 13d, and concentrations were calculated using external calibration curves as specified in Table S3. […]
The medium between the two membranes was renewed, and the vehicle (DMSO), 12a, or 27a were added. […] 12a, 27a, and their metabolites were extracted from the combined fractions and analyzed by UPLC-MS/MS.[6]

5-LOX [2] = molecular target: T1, 5-LOX (Homo sapiens, UniProt P09917); assay: 5-LOX product formation in activated PMNL; conditions: PMNL, read-out: 5-LOX PMNL residual activity at 3 μM;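 further: freshly isolated human PMNL in PBS pH 7.4 plus glucose, preincubated 10 min at 37 °C with compound, 5-LOX products (all-trans LTB4 isomers, 5-HETE) quantified by RP-HPLC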
T1 sequence (P09917 1-674): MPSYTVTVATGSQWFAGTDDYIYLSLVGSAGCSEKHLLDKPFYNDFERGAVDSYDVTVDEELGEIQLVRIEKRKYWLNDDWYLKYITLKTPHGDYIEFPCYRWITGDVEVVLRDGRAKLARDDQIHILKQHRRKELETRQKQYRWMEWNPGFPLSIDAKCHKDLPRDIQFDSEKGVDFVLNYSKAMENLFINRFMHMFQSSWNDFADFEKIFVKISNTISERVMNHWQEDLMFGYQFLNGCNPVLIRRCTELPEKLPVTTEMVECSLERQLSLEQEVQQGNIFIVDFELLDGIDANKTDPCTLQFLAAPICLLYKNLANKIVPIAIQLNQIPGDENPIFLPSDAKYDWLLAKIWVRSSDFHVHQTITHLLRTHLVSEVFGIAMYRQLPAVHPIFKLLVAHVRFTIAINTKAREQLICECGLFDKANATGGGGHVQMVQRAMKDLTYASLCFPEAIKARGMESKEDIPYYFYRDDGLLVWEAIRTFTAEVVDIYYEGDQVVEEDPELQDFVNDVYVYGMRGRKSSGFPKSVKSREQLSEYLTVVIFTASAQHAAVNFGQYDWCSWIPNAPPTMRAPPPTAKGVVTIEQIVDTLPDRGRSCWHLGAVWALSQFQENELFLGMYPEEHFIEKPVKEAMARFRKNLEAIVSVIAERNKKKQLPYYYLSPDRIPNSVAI
Method: These volunteers regularly donated blood (every 8–12 weeks) and were physically inspected by a clinician.
Erythrocytes were removed by dextran sedimentation and hypotonic lysis. PMNL were obtained from the cell pellet and platelets from the supernatant.
Freshly isolated PMNL (5 × 10^6) suspended in PBS pH 7.4 with 1 mg/mL glucose or freshly withdrawn human whole blood were preincubated with the test compounds for 10 min (or as indicated) at 37 °C. […] The reaction was stopped with an equal volume of methanol.

5-LOX [3] = molecular target: T1, 5-LOX; assay: Tryptophan fluorescence spectroscopy of 5-LOX; format: binding; parameters: made in house; host or cells: E. coli Bl21 (DE3); conditions: 5-LOX titrated with compound, 0–10 μM
Method: Fluorescence spectroscopy measurements on human recombinant 5-LOX (Abcam, Cambridge, U.K.) were conducted in PBS pH 7.4 at 25 °C using an Edinburgh Instruments FLS920 Series fluorescence spectrophotometer (Livingston, U.K.). […] The concentration range of 5-LOX used through the experiments was 0.3–0.6 μM. 5-LOX was titrated with a stock solution of the test compounds in dimethylformamide to yield an experimental compound concentration in the range of 0–10 μM. The final dimethylformamide concentration was kept under 5%. After each addition, the sample was incubated for 10 min before measurement. The fluorescence emission intensity values were corrected for dilution and background noise. All conditions were measured independently and in duplicate.
The fluorescence spectral shifts were analyzed by monitoring the alterations in the spectral center of mass by estimating the intensity-averaged emission wavelength (⟨λ⟩), as calculated from the following equation, where Fi is the fluorescence emission intensity at wavenumber νi, and the summation was performed over the range of measured F values [drawing 1] 1

5-LOX [4] = molecular target: T1, 5-LOX; assay: Cell-free 5-LOX activity (isolated human recombinant enzyme); conditions: read-out: 5-LOX enzyme residual activity at 1 μM
Method: Human recombinant 5-LOX was expressed in E. coli Bl21 (DE3) cells that were transformed with pT3–5LOX (wt 5-LOX), 5-LOX_3W (triple mutation of Trp102Ala/Trp13Ala/Trp75Ala), or 5-LOX_R (single mutant of the Arg101Asp plasmid) and purified on an ATP-agarose column (Econo-Pac, Bio-Rad, Hercules, CA) by affinity chromatography.[6],[75]
Purified 5-LOX (0.5 μg in PBS pH 7.4 containing 1 mM EDTA and 1 mM ATP) was preincubated with the vehicle (DMSO) or test compounds for 10 min and prewarmed at 37 °C.

Q: With `Cc1c(C)c2c(c(C)c1O)CC[C@@](C)(CCCC(C)CCCC(C)CCCC(C)C(=O)O)O2` (stereo partly drawn) [Compound 12a, α-T-13′-COOH] as the compound, how does the “LDH release from monocytes at higher concentrations” value (monocytes) read?
A: The value was “not evident”.

Q: What about the Hepatic metabolism [1] of the same compound?
A: Its Hepatic metabolism is “truncated to metabolites with varying side-chain lengths”.

Q: What about the remaining activity at 3 µM (5-LOX [2]) of the same compound?
A: Its remaining activity at 3 µM is 2 ± 0.8%.

Q: What about the “Shift of spectral center of mass of intrinsic Trp fluorescence of 5-LOX” value (5-LOX [3]) of the same compound?
A: Its value is “substantially shifted to a shorter wavelength”.

Q: What about the remaining activity at 1 µM (5-LOX [4]) of the same compound?
A: The remaining activity at 1 µM was 0.8 ± 0.2%.
